These compounds were tested on hydrochloric acid-ethanol-induced gastric ulcer (assay: Effect against hydrochloric acid ethanol-induced gastric ulcer (percent suppression of lesion index, oral)). Details: JCL-SD rats; oral; 30 μg/kg, 30 min before HCl-ethanol.
Format: in vivo, male JCL-SD rats or CRJ-SD rats
Procedure: To male JCL-SD rats or CRJ-SD rats (weight: 220 g to 260 g) which have been fasted for 24 hours is administered orally 1 ml of 150 mM hydrochloric acid-60% ethanol. After an hour, the stomachs are excised. The ulcer size is determined by measuring the length of each lesion using a stereoscopic microscope and the sum of individual lesion length is expressed as lesion index. The vehicle (1% to 10% ethanol) and the test compounds are administered orally 30 minutes before the hydrochloric acid-ethanol administration. The percent suppression is calculated from the lesion indexes of treated versus non-treated animals.
`CCCCC(C)CC(O)C=CC1C(O)CC2Oc3c(OCC(=O)OC)cccc3OC21` (centres unmarked) [Idd-a] was tested, and the “Percent Suppression (P.S.)” value was 32%. `CCCCC(C)CC(O)CCC1C(O)CC2Oc3c(OCC(=O)OC)cccc3OC21` (centres unmarked) [Ife-a] was tested, and the “Percent Suppression (P.S.)” value was 91%. In the case of `CC(C)=CCCC(C)CC(O)C=CC1C(O)CC2Oc3c(OCC(=O)O)cccc3OC21` (centres unmarked) [Ibl-b], the “Percent Suppression (P.S.)” value was 83%. `CCCCC(C)CC(O)C=CC1C(O)CC2Oc3c(OCC(=O)O)cccc3OC21` (centres unmarked) [Ibd-b] was tested, and the “Percent Suppression (P.S.)” value was 74%. In the case of `COC(=O)COc1cccc2c1OC1CC(O)C(C=CC(O)CC(C)CCC=C(C)C)C1O2` (centres unmarked) [Ibl-a], the “Percent Suppression (P.S.)” value was 64%. In the case of `CCCCC(C)CC(O)C=CC1C(O)CC2Oc3c(OCC(=O)OC)cccc3OC21` (centres unmarked) [Ibd-a], the “Percent Suppression (P.S.)” value was 91%. In the case of `CCCCC(C)CC(O)CCC1C(O)CC2Oc3c(OCC(=O)OC)cccc3OC21` (centres unmarked) [Ifd-a], the “Percent Suppression (P.S.)” value was 66%. `CCCCC(C)CC(O)C=CC1C(O)CC2Oc3c(OCC(=O)OC)cccc3OC21` (centres unmarked) [Ibe-a] was tested, and the “Percent Suppression (P.S.)” value was 96%. `CCCCC(C)CC(O)C=CC1C(O)CC2Oc3c(OCC(=O)OC)cccc3OC21` (centres unmarked) [Ide-a] was tested, and the “Percent Suppression (P.S.)” value was 37%.

Same assay, conditions: Rattus norvegicus, po, 1 h, CRJ-SD rats; oral; 30 μg/kg, 30 min before HCl-ethanol; read-out: Percent Suppression (P.S.)
Work on `CCCCC(C)CC(O)C=CC1C(O)CC2Oc3c(OCC(=O)OC)cccc3OC21` (centres unmarked) [Ibe-a] yielded an inhibition in vivo at 0.03 mg/kg of 99%.

Same assay, conditions: Rattus norvegicus, po, 1 h, JCL-SD rats; oral; 30 μg/kg, 30 min before HCl-ethanol; read-out: Percent Suppression (P.S.)
In the case of `O=C(O)COc1cccc2c1O[C@@H]1C[C@H](O)[C@@H](CC[C@H](O)C3CCCCC3)[C@@H]1O2` (relative stereo) [Ifb-b], the inhibition in vivo at 0.03 mg/kg was 75%. `CCC#CCC[C@@H](O)/C=C/[C@H]1[C@@H]2Oc3cccc(OCC(=O)OC)c3O[C@@H]2C[C@@H]1O` (relative stereo) [Ibc-a] gave an inhibition in vivo at 0.03 mg/kg of 29%. `CCCCC(C)CC(O)C=CC1C(O)CC2Oc3c(OCC(=O)O)cccc3OC21` (centres unmarked) [Ibe-b] was tested, and the inhibition in vivo at 0.03 mg/kg was 80%. `O=C(O)COc1cccc2c1O[C@@H]1C[C@H](O)[C@@H](/C=C/[C@H](O)C3CCCCC3)[C@@H]1O2` (relative stereo) [Ibb-b] was tested, and the inhibition in vivo at 0.03 mg/kg was 25%. `COC(=O)COc1cccc2c1O[C@@H]1C[C@H](O)[C@@H](/C=C/[C@H](O)C3CCCC3)[C@@H]1O2` (relative stereo) [Ibi-a] gave an inhibition in vivo at 0.03 mg/kg of 41%. Compound `COC(=O)COc1cccc2c1O[C@@H]1C[C@H](O)[C@@H](CC[C@H](O)C3CCCCC3)[C@@H]1O2` (relative stereo) [Ifb-a] has an inhibition in vivo at 0.03 mg/kg of 78%. `CCC#CCC[C@@H](O)/C=C/[C@H]1[C@@H]2Oc3cccc(OCC(=O)O)c3O[C@@H]2C[C@@H]1O` (relative stereo) [Ibc-b] was tested, and the inhibition in vivo at 0.03 mg/kg was 14%. `CCCCC[C@@H](O)CC[C@H]1[C@@H]2Oc3cccc(OCC(=O)OC)c3O[C@@H]2C[C@@H]1O` (relative stereo) [Ifa-a, methyl[(1R*,2S*,3aR*,9aS*)-2-hydroxy-1-[(R*)-3-hydroxyoctyl]-2,3,3a,9a-tertahydro-1H-cyclopenta[b][1,4]benzodioxin-5-oxyacetate] showed an inhibition in vivo at 0.03 mg/kg of 27%. In the case of `COC(=O)COc1cccc2c1O[C@@H]1C[C@H](O)[C@@H](CC[C@H](O)C3CCCC3)[C@@H]1O2` (relative stereo) [Ifi-a], the inhibition in vivo at 0.03 mg/kg was 52%. Compound `COC(=O)COc1cccc2c1OC1CC(O)C(C=CC(O)CC(C)COc3ccccc3)C1O2` (centres unmarked) [Ibo-a] has an inhibition in vivo at 0.03 mg/kg of 63%. In the case of `O=C(O)COc1cccc2c1O[C@@H]1C[C@H](O)[C@@H](/C=C/[C@@H](O)C3CCCCC3)[C@@H]1O2` (relative stereo) [Idb-b], the inhibition in vivo at 0.03 mg/kg was 25%. `CCCCC[C@@H](O)/C=C/[C@H]1[C@@H]2Oc3cccc(OCC(=O)OC)c3O[C@@H]2C[C@@H]1O` (relative stereo) [Iba-a] was tested, and the inhibition in vivo at 0.03 mg/kg was 36%. Compound `COC(=O)COc1cccc2c1O[C@@H]1C[C@H](O)[C@@H](CC[C@H](O)CC3CCCCC3)[C@@H]1O2` (relative stereo) [Ifj-a] has an inhibition in vivo at 0.03 mg/kg of 25%. With `CC(C)=CCCC(C)CC(O)C=CC1C(O)CC2Oc3c(OCC(=O)O)cccc3OC21` (centres unmarked) [Ibk-b] the inhibition in vivo at 0.03 mg/kg was 70%. `COC(=O)COc1cccc2c1O[C@@H]1C[C@H](O)[C@@H](/C=C/[C@H](O)C3CCCCC3)[C@@H]1O2` (relative stereo) [Ibb-a] gave an inhibition in vivo at 0.03 mg/kg of 63%. Work on `CCCCC(C)(C)[C@@H](O)/C=C/[C@H]1[C@@H]2Oc3cccc(OCC(=O)OC)c3O[C@@H]2C[C@@H]1O` (relative stereo) [Ibg-a] yielded an inhibition in vivo at 0.03 mg/kg of 15%. In the case of `CCCCC[C@H](O)/C=C/[C@H]1[C@@H]2Oc3cccc(OCC(=O)OC)c3O[C@@H]2C[C@@H]1O` (relative stereo) [Ida-a, methyl [(1R*,2S*,3aR*,9aS*)-2-hydroxy-1-[(3S*,1E)-3-hydroxy-1-octenyl]-2,3,3a,9a-tetrahydro-1H-cyclopenta[b][1,4]benzodioxin-5-yl]oxyacetate], the inhibition in vivo at 0.03 mg/kg was 37%. With `COC(=O)COc1cccc2c1OC1CC(O)C(C=CC(O)CC(C)CCC=C(C)C)C1O2` (centres unmarked) [Ibk-a] the inhibition in vivo at 0.03 mg/kg was 81%. Compound `COC(=O)COc1cccc2c1OC1CC(O)C(C=CC(O)CC(C)Oc3ccccc3)C1O2` (centres unmarked) [Ibm-a] has an inhibition in vivo at 0.03 mg/kg of 58%.

Same assay, conditions: Rattus norvegicus, po, 1 h, JCL-SD rats; oral; 100 μg/kg, 30 min before HCl-ethanol; read-out: Percent Suppression (P.S.)
`CCCCC[C@H](O)/C=C/[C@H]1[C@@H]2Oc3cccc(OCC(=O)O)c3O[C@@H]2C[C@@H]1O` (relative stereo) [Ida-b, [(1R*,2S*,3aR*,9aS*)-2-hydroxy-1-[(3S*,1E)-3-hydroxy-1-octenyl]-2,3,3a,9a-tetrahydro-1H-cyclopenta[b][1,4]benzodioxin-5-yl]oxyacetic acid] was tested, and the inhibition in vivo at 0.1 mg/kg was 19%. Compound `CCCCC[C@@H](O)/C=C/[C@H]1[C@@H]2Oc3cccc(OCC(=O)O)c3O[C@@H]2C[C@@H]1O` (relative stereo) [Iba-b, [(1R*,2S*,3aR*,9aS*)-2-hydroxy-1-[(3R*,1E)-3-hydroxy-1-octenyl]-2,3,3a,9a-tetrahydro-1H-cyclopenta[b][1,4]benzodioxin-5-yl]oxyacetic acid] has an inhibition in vivo at 0.1 mg/kg of 30%.

Same assay, conditions: reference compound; 300 μg/Kg; strain not stated
`CCCCC[C@H](O)/C=C/[C@@H]1[C@H]2CC(SCCCC(=O)OC)=N[C@H]2C[C@H]1O` [Hoe892, reference compound] was tested, and the “Percent Suppression (P.S.)” value was 28%.
